This is an account of results in ChEMBL document CHEMBL5376009 (RSC Med Chem, 2024).

Each structure is given as a SMILES string. pEC50, pIC50: −log10 of the molar value. Where only a bound is given, the exact number is not on record here.

By pEC50 is commonly meant the negative decadic logarithm of the EC50, by convention in mol/L. What is called CC50 is the concentration that lowers cell viability or growth by half. Broadly, the pIC50 is −log10 of the IC50, conventionally taken in molar units. The low end stands for a large IC50, the high end for a small IC50.

In series [1] the test system is Influenza A virus. Kind of series: Antiviral activity against influenza A virus A/Aichi/2/68 (H3N2) infected in MDCK cells by plaque assay. Type of series: functional, organism-based.
Series [2] relates to Influenza A virus. Kind of series: Antiviral activity against influenza A virus A/Guangdong/1/2009 (H1N1) infected in MDCK cells by plaque assay. Type of series: functional, organism-based.
Series [3] in a line: Cytotoxicity against MDCK cells by MTS assay. As to conditions: dog. The format is toxicity, cell-based, Canis lupus familiaris. A general note: Tetrazolium dyes change colour on reduction, which living cells bring about.
Series [4] concerns A549. Kind of series: Cytotoxicity against human A549 cells by MTS assay. The format is functional.
The subject of series [5] is Influenza A virus. Nature of the series: Antiviral activity against influenza A virus A/PR/8/34 (H1N1) infected in MDCK cells by plaque assay. Type of series: functional, organism-based.
Series [6] concerns HEK-293T. Nature of the series: Cytotoxicity against human HEK293T cells by MTS assay. The format is functional.
The subject of series [7] is Influenza A virus. Nature of the series: Antiviral activity against Influenza A virus A (H1N1). Type of series: functional, organism-based.
Series [8] can be described thus: Cytotoxicity against MDCK cells. Particulars: dog. Type of series: toxicity, cell-based, Canis lupus familiaris.
For series [9], the target named is Neuraminidase (Influenza A virus, UniProt B4URF0). Nature of the series: Inhibition of influenza A virus neuraminidase.
Series [10] deals with Influenza A virus. Nature of the series: Antiviral activity against influenza A virus A/Brisbane/59/2009 (H1N1) infected in MDCK cells assessed as reduction in cytopathic effect by fluorescence based analysis. The format is functional, organism-based. (Protection from cytopathic effect is a common read-out in antiviral testing.)
For series [11], the system named is Influenza A virus. Kind of series: Antiviral activity against influenza A virus A/California/07/2009 (H1N1) infected in MDCK cells assessed as reduction in cytopathic effect by fluorescence based analysis. Type of series: functional, organism-based.
Series [12] can be described thus: Cytotoxicity against HEK293T cells incubated for 48 hrs by Cell Titer-Glo assay. Type of series: toxicity, cell-based, HEK-293T. Particulars: human. (ATP-based viability assays read luminescence as a measure of living cells.)
In series [13] the test system is Influenza A virus. Nature of the series: Antiviral activity against influenza A virus A/Udorn/1972 (H3N2) infected in MDCK cells assessed as reduction in cytopathic effect by DAPI staining based analysis. The format is functional, organism-based.
Series [14] can be described thus: Cytotoxicity against HEK293T cells assessed as reduction in cell viability measured after 48 hrs by Cell-Titer Glo assay. Type of series: toxicity, cell-based, HEK-293T. Particulars: human.
In series [15] the test system is Influenza A virus. Nature of the series: Antiviral activity against influenza A virus A/California/07/2009 (H1N1) infected in MDCK cells assessed as reduction in cytopathic effect by DAPI staining based analysis. The format is functional, organism-based.
Series [16] concerns Influenza A virus. Kind of series: Antiviral activity against influenza A virus A/Udorn/1972 (H3N2) infected in MDCK cells assessed as reduction in cytopathic effect by fluorescence based analysis. Type of series: functional, organism-based.
Series [17] deals with Influenza A virus. Kind of series: Antiviral activity against influenza A virus H5N1 (RG14) infected in MDCK cells assessed as reduction in cytopathic effect by DAPI staining based analysis. The format is functional, organism-based.
The test system of series [18] is Influenza A virus. Nature of the series: Antiviral activity against influenza A virus A/Brisbane/59/2009 (H1N1) infected in MDCK cells assessed as reduction in cytopathic effect by DAPI staining based analysis. The format is functional, organism-based.
Series [19] has as its system Influenza A virus. Kind of series: Antiviral activity against influenza A virus H5N1 (RG14) infected in MDCK cells assessed as reduction in cytopathic effect by fluorescence based analysis. Type of series: functional, organism-based.
Series [20] in a line: Cytotoxicity against MDCK cells assessed as reduction in cell viability. Type of series: toxicity, cell-based, Canis lupus familiaris. As to conditions: dog.
Series [21] deals with Influenza A virus. Nature of the series: Antiviral activity against influenza A virus H1N1, A/California/7/2009. The format is functional, organism-based.
Series [22] relates to Influenza A virus. Kind of series: Antiviral activity against influenza A virus […], A/WSN/33. Type of series: functional, organism-based.
The subject of series [23] is Influenza A virus. Kind of series: Antiviral activity against influenza A virus H1N1, A/PR/8/34. Type of series: functional, organism-based.
A short description of series [24]: Cytotoxicity against MDCK cells assessed as reduction in cell viability measured after 72 hrs by fluorescence based assay. The format is toxicity, Canis lupus familiaris. Particulars: dog.
The test system of series [25] is Influenza A virus. Nature of the series: Antiviral activity against influenza A virus A/WSN/1933 (H1N1) infected in MDCK cells assessed as reduction in cytopathic effect by fluorescence based analysis. Type of series: functional, organism-based.
Series [26] deals with Influenza A virus. Nature of the series: Antiviral activity against Influenza A virus A/PR/8/34 (H1N1) infected in human A549 cells pretreated with cell for 3 hrs followed by viral infection and measured for 24 hrs. Type of series: functional, organism-based.
Series [27] is described as follows: Cytotoxicity against human A549 cells incubated for 48 hrs by neutral red uptake assay. The format is toxicity, cell-based.
Series [28] concerns Influenza A virus. Nature of the series: Antiviral activity against influenza A virus H5N1,A/Vietnam/1194/2004 infected in MDCK cells assessed as reduction in plaque formation incubated for 72 hrs by crystal violet staining based analysis. Type of series: functional, organism-based. Particulars: H5N1,A/Vietnam/1194/2004, MDCK.
Series [29] has as its system Influenza A virus. Kind of series: Antiviral activity against influenza A virus H1N1,A/WSN/1933 infected in MDCK cells assessed as reduction in plaque formation incubated for 72 hrs by crystal violet staining based analysis. As to conditions: H1N1,A/WSN/1933, MDCK. The format is functional, organism-based.
Series [30] is described as follows: Cytotoxicity against MDCK cells assessed as reduction in cell viability measured after 72 hrs by MTT assay. Type of series: toxicity, cell-based, Canis lupus familiaris. Particulars: dog.
Series [31] deals with Influenza B virus. Kind of series: Antiviral activity against Influenza B virus B/Victoria. Type of series: functional, organism-based.
For series [32], the system named is Influenza A virus. Kind of series: Antiviral activity against Influenza A virus A/Brisbane/10/2007 (H3N2). Type of series: functional, organism-based.
Series [33] deals with Influenza A virus. Kind of series: Antiviral activity against Influenza A virus A/PR/8/34 (H1N1). Type of series: functional, organism-based.
Series [34] relates to Influenza B virus. Kind of series: Antiviral activity against Influenza B virus B/Yamagata. Type of series: functional, organism-based.
Series [35] deals with Influenza A virus. Nature of the series: Antiviral activity against influenza A H5N1 infected in MDCK cells assessed as viral growth inhibition measured for 12 to 72 hrs. Type of series: functional, organism-based.
A short description of series [36]: Cytotoxicity against MDCK cells incubated for 72 hrs by CCK-8 assay. The format is toxicity, cell-based, Canis lupus familiaris. Particulars: dog.

Sequence of Neuraminidase (B4URF0 whole entry): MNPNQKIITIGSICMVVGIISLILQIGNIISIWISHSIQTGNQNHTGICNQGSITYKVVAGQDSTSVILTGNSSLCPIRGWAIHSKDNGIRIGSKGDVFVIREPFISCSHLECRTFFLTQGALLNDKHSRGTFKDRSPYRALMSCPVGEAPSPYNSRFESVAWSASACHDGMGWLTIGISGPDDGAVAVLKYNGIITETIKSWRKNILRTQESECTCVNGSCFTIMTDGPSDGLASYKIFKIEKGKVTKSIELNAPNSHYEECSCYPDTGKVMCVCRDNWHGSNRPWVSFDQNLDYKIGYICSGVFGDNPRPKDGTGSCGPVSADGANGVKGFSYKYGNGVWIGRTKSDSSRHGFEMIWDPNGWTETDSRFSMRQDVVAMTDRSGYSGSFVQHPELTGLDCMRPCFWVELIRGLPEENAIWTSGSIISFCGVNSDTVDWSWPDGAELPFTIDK

With `O=C(NC1CCCCCC1)c1cc2c(s1)-c1ccsc1CC2`, the pEC50 is 6.39 in [1], 5.94 in [2] and 5.99 in [5]. The CC50 in series [3], in series [4] and in series [6] was greater than 100 µM in each case.

Regarding `C=C1Cc2cc(C(F)(F)F)ccc2C(=O)NCC(C)(C)/C(=N/OC)CCCCOC1=O`, in series [7], the pEC50 is 5.64. The CC50 in [8] turned out to be 211 µM.

With `Cc1onc(-c2ccccc2Cl)c1C(=O)N1CCN(c2ccc([N+](=O)[O-])cc2Cl)CC1`, in series [9], the pIC50 is 7.00. Moreover, the pEC50 was 5.92 in series [10]; 5.38 in series [11]; 6.15 in series [13]; 5.92 in series [15]; 6.15 in series [16]; 6.49 in [17]. Also, the pEC50 was 5.92 in [18] and 6.49 in series [19]. Also, the CC50 at 48 h in series [12] and in series [14] was greater than 100 µM each time.

Turning to `CC(=O)c1cc(O)ccc1O[C@@H]1O[C@H](CO)[C@@H](O)[C@H](OC(=O)c2cc(O)c(O)c(O)c2)[C@H]1OC(=O)c1cc(O)c(O)c(O)c1`, the CC50 in series [20] is greater than 1000 µM. Also, the pEC50 was 4.51 in series [21], 4.61 in series [22] and 4.51 in series [23].

In the case of `CN(C)S(=O)(=O)N1CCCC(CNC(=O)c2cccc(C(F)(F)F)c2)C1` (stereo not given), the CC50 at 72 h in series [24] is greater than 100 µM. Moreover, the pEC50 in series [25] is 6.55.

For the compound `CCc1ccc(NC(=O)COC(=O)c2ccc3ccccc3n2)cc1`, the pEC50 in series [26] was 4.29. The CC50 at 48 h in [27] was greater than 400 µM.

As for `CCc1ccccc1N(CC(=O)Nc1cc(C)cc(C)c1)S(C)(=O)=O`, the pEC50 in series [28] was 7.07; in series [29] it was 8.15. For the same compound, the CC50 at 72 h in series [30] is greater than 100 µM.

For the compound `COc1cccc(OC)c1C(=O)/C=C/c1nc(C)c(C)nc1C`, the pEC50 is 5.50 in series [31], 5.46 in [32], 5.56 in series [33] and 5.62 in [34]. This compound had a CC50 in [8] of 41.5 µM.

In the case of `CC(=O)c1cc(O)ccc1O[C@@H]1O[C@H](COC(=O)c2cc(O)c(O)c(O)c2)[C@@H](O)[C@H](OC(=O)c2cc(O)c(O)c(O)c2)[C@H]1O`, in [20], the CC50 amounted to 964 µM. Further, the pEC50 in series [21] is 4.54; in series [22], 4.93; in series [23], 4.69.

Regarding `NC(=O)c1nc(F)cnc1O` [FAVIPIRAVIR], the CC50 in series [20] is greater than 1000 µM. The pEC50 in series [21], in series [22] and in series [23] was 4.43 throughout.

For `O[C@H]1[C@H]2c3cc4c(cc3CN3CCC(=C[C@@H]1O)[C@H]23)OCO4` [LYCORINE], the pEC50 in series [35] was greater than 6.34. In [36], this compound displayed a CC50 at 72 h of 20.9 µM.
